Assay results from US4596806A, “7-piperidino-1,2,3,5-tetrahydroimidazo[2,1-b]-quinazolin-2-one having platelet aggregation inhibitory activity” (Daiichi Seiyaku Co., Ltd., priority 1983, dated 1986).
Values after ≈ are worked out from the molar mass of the structure shown. Read-outs that look alike come from different tables or passages of the source.

How the values were obtained:
[1] = Solubility Test (water-solubility); assay type: physicochemical
platelet aggregation = assay: Test of Platelet Aggregation Inhibition (in vitro), rat PRP; assay type: cell-based, rat (Wistar Imamichi); conditions: rat blood, read-out: Platelet Aggregation Inhibitory Activity (in vitro: IC50)
Experimental: The test was performed as follows in accordance with the method of Ashida et al, Thrombosis and Haemostasis, Vol. 40, p542 (1979).
Blood was taken by puncture from the heart of a Wistar Imamichi rat under anesthesia with pentobarbital into a syringe containing 1/10 volume of a 3.13% aqueous solution of sodium citrate dihydrate, and the citrated blood was centrifuged to obtain a platelet-rich-plasma (PRP). In the same manner, citrated blood was collected from the vein of a healthy human who had not taken aspirin or any other anti-inflammatory agent since before 10 days, followed by centrifugation to obtain PRP. 0.005 ml of each test compound was added to 0.445 ml each of these PRP samples, and the system was warmed at 30° C. for 1 minute. 0.05 ml of an aggregation inducer (ADP or collagen) was then added thereto, and platelet aggregation was determined according to the method of Born, Nature, Vol. 194, p927 (1962). The inhibitory activity of platelet aggregation was expressed in terms of 50% inhibition concentration, and the results obtained are shown in Table 2.

[2] = tested on: platelet aggregation due to addition of 3LL cells; assay: Test of Inhibition of Platelet Aggregation Caused by Cancer Cells (in vitro), 3LL; assay type: cell-based, C57BL/6 mouse
Experimental: Blood was taken from the abdominal vein of a 7-week-old C57BL/6 male mouse into a syringe containing 1/10 volume of a 3.13% aqueous solution of sodium citrate dihydrate as an anticoagulant. The thus prepared citrated blood sample was centrifuged at 230×g at room temperature for 7 minutes. The resulting supernatant fluid was used as PRP. The remainder was further centrifuged at 1,500×g at room temperature for 10 minutes, and the supernatant fluid was used as platelet-poor-plasma (PPP). Platelet count in PRP was adjusted to 450,000 per mm^3 by PPP. A 450 μl of PRP was placed in a reaction tube and subjected to centrifugation at 950 rpm at 30° C. About 1 minute later while continuing the centrifugation, 5 μl of a 200 mM calcium chloride aqueous solution was added to the system to a final concentration of […]. 30 seconds later, 5 μl of a saline solution of the compound (I) (dihydrochloride monohydrate) was added to the system, and additional 30 seconds later, 50 μl of a cell suspension containing 1×10^5 cells of B16 melamona BL6 (B16BL6) originated in a C57BL mouse or 50 μl of a cell suspension containing 1×10^6 cells of Lewis lung cancer (3LL) originated in a C57BL mouse was added thereto. Platelet aggregation of the sample system was determined from changes in transmittancy by use of an aggregometer. […]

[3] = tested on: B16BL6-induced aggregation; assay: Test of Inhibition of Platelet Aggregation Caused by Cancer Cells (ex vivo), B16BL6; assay type: in vivo, C57BL/6 mouse; conditions: 1 mg/kg or more, i.v. or oral
Experimental: The compound of the invention (dihydrochloride monohydrate) dissolved in a physiological saline solution (J.P.) was intravenously or orally administered to a 7-week-old C57BL/6 male mouse (body weight: about 20 g). Three minutes after the intravenous administration or 1 hour later from the oral administration, blood was taken from the abdominal vein into a syringe containing 1/10 volume of a 3.13% aqueous solution of sodium citrate dihydrate and PRP was prepared as described before in Test Example 6. The PRP was placed in a reaction tube under the same conditions as in Test Example 6, and 5 μl of a 200 mM calcium chloride aqueous solution was added thereto. One minute later, 50 μl of a B16BL6 (5×10^4 cells/50 μl)- or a 3LL (2×10^6 cells/50 μl)-cell suspension was added to the system. In the same manner as in Test Example 6, platelet aggregation was determined.

[4] = tested on: B16BL6-Induced Acute Pulmonary Embolism; assay: Test of Inhibition of Death by Acute Pulmonary Embolism; assay type: in vivo, C57BL/6 mouse
Experimental: The compound of the present invention (dihydrochloride monohydrate) was dissolved in a physiological saline solution (J.P.) and intravenously administered to the tail vein of a 5-week-old (C57BL/6 male mouse (body weight: about 18.5 g) at a dose of 10 mg/kg or 30 mg/kg. After 3 minutes, 5×10^5 cells of B16BL6 were intravenously inoculated to the tail vein. The death ratios 3 and 10 minutes after the inoculation are shown in Table 6.

3LL = assay: Test of Inhibition on Pulmonary Metastasis, 3LL; assay type: in vivo, C57BL/6 mouse; conditions: day 11, mean ± standard error
Experimental: 1×10^5 cells/animal of B16BL6 or 7×10^5 cells/animal of 3LL were inoculated to the tail vein of 10 to 12 6-week-old C57BL/6 male mice per group (body weight: about 18.5 g). The compound (I) (dihydrochloride monohydrate) dissolved in a physiological saline solution (J.P.) was administered to each animal at a dose of 1, 3 or 10 mg/kg orally 24 hours, 1 hour before and 1 hour after the inoculation, or intravenously immediately before the inoculation. On the 13th day from the inoculation of B16BL6 or 11th day from the inoculation of 3LL, the number of metastatic nodules in the lungs was counted using an operating microscope.

[5] = LD50 (probit method), rat; conditions: in vivo, iv
[6] = tested on: Water Immersion and Immobilization-induced Gastric Ulcer; assay: Effect on Water Immersion and Immobilization-induced Gastric Ulcer in Rats; assay type: in vivo, rat (Donryu male); conditions: p.o.
Experimental: Donryu male rats having a body weight of 352 to 414 g were subjected to the stress-induced gastric ulceration test by water-immersion and immobilization [Takagi and Okabe, Japan J. Pharmacol., 18, 9-18 (1968)] at a water temperature of 20° to 22° C. for 7 hours. Compound (I) was administered orally in the form of a suspension in a 0.5% aqueous CMC solution at a dose of 5 ml/Kg 30 minutes before loading the stress. After the test period, the rats were sacrificed and the hyperemic area and the erosious area on the stomach inside wall were measured to determine % inhibition of the ulcer.

Compound: O=C1CN2Cc3cc(N4CCCCC4)ccc3N=C2N1 [Compound (I), 7-piperidino-1,2,3,5-tetrahydroimidazo[2,1-b]quinazolin-2-one]
- solubility ([1]; Water at pH 4): 4.1 mg/mL (≈ 15.2 mM)
- solubility ([1]; pH 2, Tap Water, solution pH about 2): 270 mg/mL (≈ 999 mM)
- IC50 (platelet aggregation; inducer ADP): 3800 nM
- IC50 (platelet aggregation; inducer collagen): 330 nM
- inhibition of platelet aggregation due to addition of 3LL cells ([2]; 0.3 μM): partially inhibited
- inhibition of platelet aggregation due to addition of 3LL cells ([2]; final concentration of 1 μM or more): completely inhibited
- inhibition of B16BL6-induced aggregation (ex vivo) [3]: completely inhibited
- Number of Dead Animals/Number of Tested Animals ([4]; i.v. 10 mg/kg, after 3 min): 2/9
- Number of Dead Animals/Number of Tested Animals ([4]; i.v. 10 mg/kg, after 10 min): 4/9
- Number of Dead Animals/Number of Tested Animals ([4]; i.v. 30 mg/kg, after 3 min): 1/9
- Number of Dead Animals/Number of Tested Animals ([4]; i.v. 30 mg/kg, after 10 min): 4/9
- Number of Metastatic Nodules in the Lungs (3LL; 1 mg/kg): 15.4 ± 2.8
- Number of Metastatic Nodules in the Lungs (3LL; 3 mg/kg): 5.9 ± 1.3
- Number of Metastatic Nodules in the Lungs (3LL; 10 mg/kg): 4.0 ± 1.1
- LD50 ([5]; female Wistar rat): 219 mg/kg
- LD50 ([5]; male Wistar rat): 232 mg/kg
- Ulcer Index, Erosious Area ([6]; 30 mg/kg): 17.8 ± 5.7 mm
- Ulcer Index, Erosious Area, Inhibition ([6]; 30 mg/kg): 32%
- Ulcer Index, Hyperemic Area ([6]; 30 mg/kg): 19.4 ± 9.0 mm
- Ulcer Index, Hyperemic Area, Inhibition ([6]; 30 mg/kg): 69%
- Ulcer Index, Erosious Area ([6]; 100 mg/kg): 1.3 ± 0.8 mm
- Ulcer Index, Erosious Area, Inhibition ([6]; 100 mg/kg): 95%
- Ulcer Index, Hyperemic Area ([6]; 100 mg/kg): 0 mm
- Ulcer Index, Hyperemic Area, Inhibition ([6]; 100 mg/kg): 100%
- Ulcer Index, Erosious Area ([6]; 300 mg/kg): 2.6 ± 1.3 mm
- Ulcer Index, Erosious Area, Inhibition ([6]; 300 mg/kg): 90%
- Ulcer Index, Hyperemic Area ([6]; 300 mg/kg): 0 mm
- Ulcer Index, Hyperemic Area, Inhibition ([6]; 300 mg/kg): 100%
